ChEMBL document CHEMBL1201862, “PubChem BioAssay data set” (2004)
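Tested at 5 concentrations; 48 h exposure; 96-well plates; endpoints linearly interpolated, else capped at highest concentration. GI50 marks 50% less growth.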 Active and inactive are the calls of the source. Cut-off read from the data, not from the text of the source: active = GI50 up to about 1.1 µM and inactive = higher.

Assays:
Test in all cases: NCI tumour cell line growth inhibition, 48 h
NCI-H23 = tested on: NCI-H23
SF-539 = tested on: SF-539
786-0 = tested on: 786-0
NCI-H226 = tested on: NCI-H226
MDA-MB-435 = tested on: MDA-MB-435
CCRF-CEM = tested on: CCRF-CEM
HCT-15 = tested on: HCT-15
CAKI-1 = tested on: CAKI-1
MCF7 = tested on: MCF7
COLO 205 = tested on: COLO 205
UACC-257 = tested on: UACC-257
SF-268 = tested on: SF-268
U-251 = tested on: U-251
IGROV-1 = tested on: IGROV-1
MOLT-4 = tested on: MOLT-4
HOP-62 = tested on: HOP-62
SF-295 = tested on: SF-295
SW-620 = tested on: SW-620
NCI/ADR-RES = tested on: NCI/ADR-RES
NCI-H522 = tested on: NCI-H522

Compound: NC(=S)N/N=C1\CCCC1C(O)(C(F)(F)Cl)C(F)(F)Cl (stereo not given)
- GI50 (NCI-H23): > 10 µM (inactive)
- GI50 (SF-539): > 10 µM (inactive)
- GI50 (786-0): > 10 µM (inactive)
- GI50 (NCI-H226): > 10 µM (inactive)
- GI50 (MDA-MB-435): > 10 µM (inactive)
- GI50 (CCRF-CEM): > 10 µM (inactive)
- GI50 (HCT-15): > 10 µM
- GI50 (CAKI-1): > 10 µM (inactive)
- GI50 (MCF7): > 10 µM (inactive)
- GI50 (COLO 205): > 10 µM (inactive)
- GI50 (UACC-257): > 10 µM (inactive)
- GI50 (SF-268): > 10 µM (inactive)
- GI50 (U-251): > 10 µM (inactive)
- GI50 (IGROV-1): > 10 µM (inactive)
- GI50 (MOLT-4): > 10 µM (inactive)
- GI50 (HOP-62): > 10 µM (inactive)
- GI50 (SF-295): > 10 µM (inactive)
- GI50 (SW-620): > 10 µM (inactive)
- GI50 (NCI/ADR-RES): > 10 µM (inactive)
- GI50 (NCI-H522): > 10 µM (inactive)

Compound: Cc1cccc(NC(=S)Nc2cccc(Cl)c2)n1
- GI50 (NCI-H23): > 100 µM (inactive)
- GI50 (SF-539): 30.1 µM (inactive)
- GI50 (786-0): > 70.6 µM (inactive)
- GI50 (NCI-H226): > 56.9 µM (inactive)
- GI50 (MDA-MB-435): > 100 µM (inactive)
- GI50 (CCRF-CEM): > 100 µM (inactive)
- GI50 (HCT-15): > 100 µM
- GI50 (CAKI-1): > 100 µM (inactive)
- GI50 (MCF7): > 100 µM (inactive)
- GI50 (COLO 205): > 100 µM (inactive)
- GI50 (UACC-257): > 100 µM (inactive)
- GI50 (SF-268): > 67.8 µM (inactive)
- GI50 (U-251): 47.1 µM (inactive)
- GI50 (IGROV-1): 44.2 µM (inactive)
- GI50 (MOLT-4): > 100 µM (inactive)
- GI50 (HOP-62): 39.4 µM (inactive)
- GI50 (SF-295): 32.1 µM (inactive)
- GI50 (SW-620): > 100 µM (inactive)
- GI50 (NCI/ADR-RES): > 96.4 µM (inactive)
- GI50 (NCI-H522): 49.9 µM (inactive)

Compound: COc1ccc(NC(=O)CC(=O)N2N=C(c3ccccc3)C(/N=N/c3ccc(S(=O)(=O)CCOS(=O)(=O)O)cc3)C2=O)cc1 (stereo not given)
- GI50 (NCI-H23): > 100 µM (inactive)
- GI50 (SF-539): > 100 µM (inactive)
- GI50 (786-0): > 100 µM (inactive)
- GI50 (NCI-H226): > 100 µM (inactive)
- GI50 (MDA-MB-435): > 100 µM (inactive)
- GI50 (CCRF-CEM): > 100 µM (inactive)
- GI50 (HCT-15): > 100 µM
- GI50 (CAKI-1): > 100 µM (inactive)
- GI50 (MCF7): > 100 µM (inactive)
- GI50 (COLO 205): > 100 µM (inactive)
- GI50 (UACC-257): > 100 µM (inactive)
- GI50 (SF-268): > 100 µM (inactive)
- GI50 (U-251): > 100 µM (inactive)
- GI50 (IGROV-1): > 100 µM (inactive)
- GI50 (MOLT-4): > 100 µM (inactive)
- GI50 (HOP-62): > 100 µM (inactive)
- GI50 (SF-295): > 100 µM (inactive)
- GI50 (SW-620): > 100 µM (inactive)
- GI50 (NCI/ADR-RES): > 100 µM (inactive)
- GI50 (NCI-H522): > 100 µM (inactive)

Compound: O=C1C[C@H](COCc2ccccc2)NC(=O)C[C@H](COCc2ccccc2)NC(=O)C[C@H](COCc2ccccc2)N1
- GI50 (NCI-H23): 55.3 µM (inactive)
- GI50 (SF-539): 15.3 µM (inactive)
- GI50 (786-0): 16.9 µM (inactive)
- GI50 (NCI-H226): > 100 µM (inactive)
- GI50 (MDA-MB-435): > 100 µM (inactive)
- GI50 (CCRF-CEM): > 100 µM (inactive)
- GI50 (HCT-15): > 100 µM
- GI50 (CAKI-1): > 100 µM (inactive)
- GI50 (MCF7): > 100 µM (inactive)
- GI50 (COLO 205): > 100 µM (inactive)
- GI50 (UACC-257): > 100 µM (inactive)
- GI50 (SF-268): 40.9 µM (inactive)
- GI50 (U-251): 12.6 µM (inactive)
- GI50 (IGROV-1): > 100 µM (inactive)
- GI50 (MOLT-4): 5.9 µM (inactive)
- GI50 (HOP-62): 17.9 µM (inactive)
- GI50 (SF-295): 19.2 µM (inactive)
- GI50 (SW-620): > 100 µM (inactive)
- GI50 (NCI/ADR-RES): > 100 µM (inactive)
- GI50 (NCI-H522): > 100 µM (inactive)
